# Test results from publication PMC11820358 (Molecules, 2025).
# Entries after “also recorded” stand apart in the source; their conditions may differ.
# Columns and labels:
# chymotrypsin [1] = assay: chymotrypsin in HEPES buffer solution (50 mM, pH = 7.4); conditions: 37 °C, up to 8 h
# chymotrypsin [2] = biological target: T1, chymotrypsin (Bos taurus, UniProt P00766); assay: Enzymatic degradation by chymotrypsin, substrate decay followed by HPLC; conditions: 37 °C; for Substrate decay rate constant in the presence of chymotrypsin: peptide 0.5 mg/mL in HEPES 50 mM pH 7.4, chymotrypsin 0.5 mg/mL, peptide:protease 40:1 (w/w), stopped with 1% TFA, HPLC-UV 215 nm, fit y=A0×exp(−k1×x), each experiment three times, Figure 7; for Enzymatic degradation by chymotrypsin, compared with 5-t: peptide 0.5 mg/mL, HEPES 50 mM pH 7.4, chymotrypsin 0.5 mg/mL, 40:1 (w/w), up to 8 h, HPLC, three times, Figures 5C, 6
# chymotrypsin [3] = biological target: T1, chymotrypsin; assay: LC-MS analysis of enzymatic fragments and cleavage sites with chymotrypsin; assay type: in vitro ADME; design: purchased; conditions: LC-MS (ESI); HEPES 50 mM pH 7.4, 37 °C, peptide:protease 40:1
# Experimental: To further investigate how glycosylation promotes the enzymatic digestion of D-amino acid-containing peptides, we analyzed the enzymatic cleavage sites of the glycosylated peptides using LC-MS (Figures S6–S14).
# (β-D-GalNAc ) (H) in the presence of chymotrypsin. The peptides were dissolved in HEPES
# Chymotrypsin was added to the above solution. In which the peptide: protease (ω: ω) = 40:1.
# Incubation was performed at 37°C. Method of stopping enzymatic digestion after reaching
# reaction time: Chymotrypsin is extinguished with 1% TFA. Each experiment was performed
# papain = papain in HEPES buffer (50 mM, pH=7.4); conditions: 37 °C, up to 8 h
# pepsin = pepsin in HEPES buffer (50 mM, pH=7.4); conditions: 37 °C, up to 8 h
# Proteinase K (PROK) = biological target: T2, Proteinase K (PROK) (Parengyodontium album, UniProt P06873); assay: Enzymatic degradation by Proteinase K (PROK), protease resistance; assay type: in vitro ADME; conditions: peptide 0.5 mg/mL in HEPES 50 mM pH 7.4 (600 μL) + PROK 1.5 mg/mL (15.0 μL); 50 °C; 0-8 h; quenched with 1% TFA; HPLC 215 nm; three times; Figure 4
# T2 construct: purchased
# Experimental: The peptides were dissolved in HEPES buffer (50 mM, pH = 7.4) to a final concentration of 0.5 mg/mL. Proteinase K (PROK) was prepared in deionized water at a final concentration of 1.5 mg/mL. The peptide solutions (600 μL) were then incubated with PROK solution (15.0 μL) at 50 °C. At 0, 0.5, 1.0, 2.0, 4.0, and 8.0 h intervals, 100 μL of the digestion mixture was taken and quenched with 100 μL of 1% TFA in water. The enzymatic hydrolysis of peptides was monitored by HPLC at 215 nm. Each experiment was performed three times.
# [4] = RP-HPLC retention time of peptides (hydrophobicity/polarity); assay type: physicochemical; conditions: chromatographic, C18 reversed phase, 0.1% TFA water/acetonitrile, gradient 10-50% solvent B over 30 min, 1 mL/min, UV; used as measure of hydrophobicity/polarity; Figure 3D
# Experimental: Purification was performed on a ZORBAX Eclipse XDB-C18 reversed-phase column (5 μm, 9.4 × 250 mm, Agilent, Santa Clara, CA, USA) using solvent A (0.1% TFA in water) and solvent B (0.1% TFA in acetonitrile). Elution was performed at a flow rate of 1 mL/min with a gradient of 10–50% solvent B over 30 min, and detection was carried out using a UV detector at 220 nm. All purified peptide samples were freeze-dried to yield a white powder.
# T2 sequence (P06873 106-384): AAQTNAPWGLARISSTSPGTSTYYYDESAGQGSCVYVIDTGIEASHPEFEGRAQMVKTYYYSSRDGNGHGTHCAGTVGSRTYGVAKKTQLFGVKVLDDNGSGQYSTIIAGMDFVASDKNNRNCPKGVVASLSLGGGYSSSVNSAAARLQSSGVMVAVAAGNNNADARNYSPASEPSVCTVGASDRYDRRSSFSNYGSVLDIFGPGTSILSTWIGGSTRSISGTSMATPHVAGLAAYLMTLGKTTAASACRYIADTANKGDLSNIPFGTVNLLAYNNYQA
Substance,cleaved bond (chymotrypsin [1]),Cleavage sites in the presence of chymotrypsin (chymotrypsin [3]),Enzymatic fragments in the presence of chymotrypsin (chymotrypsin [3]),other results
KTNE(t-β-D-Gal-NAc)WRSED,Arg7-Ser8,,,
"KTNE(t-β-D-Gal-NAc)WRSED [5-t-(β-D-GalNAc), 5-t glycosylated with β-D-acetyl-Galactosamine at Thr5]",,"Tyr2-Asn3, Arg7-Ser8","KY, NE-(t-β-D-GalNAc)-WR, NE-(t-β-D-Gal-NAc)-WRSED, SED",Substrate decay rate constant in the presence of chymotrypsin (chymotrypsin [2]): 0.106 h⁻¹
KYNE(t-α-D-Glc)WRSED,Arg7-Ser8; also recorded: Tyr2-Asn3,,,
KYNE(t-α-D-Glc)WRSED [5-t-(α-D-Glc)],,"Tyr2-Asn3, Arg7-Ser8","KY, NE-(t-α-D-Glc)-WR, NE-(t-α-D-Glc)-WRSED, SED",
KYNE(t-β-D-Gal)WRSED,Tyr2-Asn3; also recorded: Arg7-Ser8,,,
KYNE(t-β-D-Gal)WRSED [5-t-(β-D-Gal)],,"Tyr2-Asn3, Arg7-Ser8","KY, NE-(t-β-D-Gal)-WR, NE-(t-β-D-Gal)-WRSED, SED",
KYNE(t-β-D-Glc)WR(S-β-D-Glc)ED,Tyr2-Asn3; also recorded: Arg7-Ser8,,,
KYNE(t-β-D-Glc)WRSED,Tyr2-Asn3; also recorded: Arg7-Ser8,,,not cleaved (papain): no enzymatic degradation; substrate molar fraction 1.0 at 8 h; not cleaved (pepsin): no enzymatic degradation; substrate molar fraction 1.0 at 8 h
KYNE(t-β-D-Glc)WRSED [5-t-(β-D-Glc)],,"Tyr2-Asn3, Arg7-Ser8","KY, NE-(t-β-D-Glc)-WR, NE-(t-β-D-Glc)-WRSED, SED","Enzymatic degradation by PROK, substrate decay curves compared (Proteinase K (PROK)): nearly identical"
KYNE(t-β-D-Glc-Ac4)WRSED [5-t-(β-D-Glc-Ac4)],,,,Retention time in RP-HPLC [4]: 21.481 min
KYNE(t-β-D-Rib)WRSED,Tyr2-Asn3; also recorded: Arg7-Ser8,,,
"KYNE(t-β-D-Rib)WRSED [5-t-(β-D-Rib), 5-t glycosylated with β-D-Ribose at Thr5]",,"Tyr2-Asn3, Arg7-Ser8","KY, KYNE-(t-β-D-Rib)-WR, NE-(t-β-D-Rib)-WR, NE-(t-β-D-Rib)-WRSED, SED","Substrate decay rate constant in the presence of chymotrypsin (chymotrypsin [2]): 0.187 h⁻¹; Enzymatic degradation by chymotrypsin, compared with 5-t (chymotrypsin [2]): digested more efficiently than 5-t"
KYNE(t-β-L-Rib)WRSED,Tyr2-Asn3; also recorded: Arg7-Ser8,,,
"KYNE(t-β-L-Rib)WRSED [5-t-(β-L-Rib), 5-t glycosylated with β-L-Ribose at Thr5]",,"Tyr2-Asn3, Arg7-Ser8","KY, KYNE(t-β-L-Rib)-WR, NE-(t-β-L-Rib)-WR, NE-(t-β-L-Rib)-WRSED, SED","Substrate decay rate constant in the presence of chymotrypsin (chymotrypsin [2]): 0.144 h⁻¹; Enzymatic degradation by chymotrypsin, compared with 5-t (chymotrypsin [2]): digested more efficiently than 5-t; Enzymatic degradation by PROK, substrate decay curves compared (Proteinase K (PROK)): more pronounced inhibitory effect on peptide enzymatic degradation compared to D-ribose"
KYNEtWR(S-β-D-Glc)ED,Tyr2-Asn3; also recorded: Arg7-Ser8,,,
KYNEtWR(S-β-D-Glc)ED [5-t-(S-β-D-Glc)],,"Tyr2-Asn3, Arg7-Ser8","KY, KYNE-t-WR, NE-t-WR, NE-t-WR-(S-β-D-Glc)-ED, (S-β-D-Glc)-ED","Enzymatic degradation by PROK, substrate decay curves compared (Proteinase K (PROK)): higher than that of 5-t-(β-D-Glc)"
KYNEtWRSED,Tyr2-Asn3; also recorded: Arg7-Ser8,,,not cleaved (papain): no enzymatic degradation; substrate molar fraction 1.0 at 8 h; not cleaved (pepsin): no enzymatic degradation; substrate molar fraction 1.0 at 8 h
"KYNEtWRSED [5-t, template peptide KYNEtWRSED containing D-Thr at position five]",,"Tyr2-Asn3, Arg7-Ser8","KY, NE-t-WR, NE-t-WRSED, SED",Substrate decay rate constant in the presence of chymotrypsin (chymotrypsin [2]): 0.103 h⁻¹
